The source of these data is publication PMC9544254 (Clinical and Experimental Allergy, 2022).

Series [1] concerns the target Tissue kallikrein (Homo sapiens, UniProt P06870). As to the kind of experiment: isolated enzyme kinetic fluorogenic substrate IC50 assay. Format: biochemical. Particulars: 5 min pre‐incubation.
Protocol: (§3) Protease inhibition was measured by monitoring the rate of fluorescence generation at a fixed substrate concentration over a range of inhibitor concentrations. […] To estimate the IC50, a 4‐parameter logistic dose‐response curve was fitted to the normalized rate of fluorescence increase.
The target of series [2] is FXIIa (Homo sapiens, UniProt P00748). The series is described as above. Particulars: 5 min pre‐incubation. Type of series: biochemical.
Protocol: as §3
Series [3] addresses FXIa (Homo sapiens, UniProt P03951). The description is as above. As to conditions: 5 min pre‐incubation. Format: biochemical.
Protocol: as §3
Series [4] has as its target FXa (Homo sapiens, UniProt P00742). Described as above. Type of series: biochemical. Particulars: 5 min pre‐incubation.
Protocol: as §3
For series [5], the target named is FVIIa (Homo sapiens, UniProt P08709). The description is as above. Type of series: biochemical. As to conditions: 5 min pre‐incubation.
FVIIa, sequence (P08709 213-466 limits assumed): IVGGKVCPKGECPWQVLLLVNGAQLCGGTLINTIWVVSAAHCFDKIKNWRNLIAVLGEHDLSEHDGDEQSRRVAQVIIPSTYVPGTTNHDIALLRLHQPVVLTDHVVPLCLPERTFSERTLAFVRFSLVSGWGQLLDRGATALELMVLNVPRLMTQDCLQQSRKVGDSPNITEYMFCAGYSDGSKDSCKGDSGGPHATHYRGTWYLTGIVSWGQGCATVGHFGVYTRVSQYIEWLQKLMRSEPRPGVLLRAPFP
FVIIa, sequence (P08709 61-212 partner limits assumed): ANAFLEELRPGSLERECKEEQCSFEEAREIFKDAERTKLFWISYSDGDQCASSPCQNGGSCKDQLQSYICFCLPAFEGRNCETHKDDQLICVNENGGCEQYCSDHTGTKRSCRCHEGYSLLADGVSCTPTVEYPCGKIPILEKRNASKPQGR
Protocol: as §3
The target of series [6] is Plasmin (Homo sapiens, UniProt P00747). Described as above. Format: biochemical. Particulars: 5 min pre‐incubation.
Plasmin, sequence (P00747 581-810 limits assumed): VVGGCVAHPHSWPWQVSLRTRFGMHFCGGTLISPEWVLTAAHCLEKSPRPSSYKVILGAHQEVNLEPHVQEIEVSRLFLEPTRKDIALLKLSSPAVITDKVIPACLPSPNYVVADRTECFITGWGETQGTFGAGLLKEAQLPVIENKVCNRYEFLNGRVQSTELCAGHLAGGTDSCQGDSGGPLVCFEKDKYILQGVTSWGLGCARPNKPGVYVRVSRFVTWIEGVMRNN
Plasmin, sequence (P00747 97-580 partner limits assumed): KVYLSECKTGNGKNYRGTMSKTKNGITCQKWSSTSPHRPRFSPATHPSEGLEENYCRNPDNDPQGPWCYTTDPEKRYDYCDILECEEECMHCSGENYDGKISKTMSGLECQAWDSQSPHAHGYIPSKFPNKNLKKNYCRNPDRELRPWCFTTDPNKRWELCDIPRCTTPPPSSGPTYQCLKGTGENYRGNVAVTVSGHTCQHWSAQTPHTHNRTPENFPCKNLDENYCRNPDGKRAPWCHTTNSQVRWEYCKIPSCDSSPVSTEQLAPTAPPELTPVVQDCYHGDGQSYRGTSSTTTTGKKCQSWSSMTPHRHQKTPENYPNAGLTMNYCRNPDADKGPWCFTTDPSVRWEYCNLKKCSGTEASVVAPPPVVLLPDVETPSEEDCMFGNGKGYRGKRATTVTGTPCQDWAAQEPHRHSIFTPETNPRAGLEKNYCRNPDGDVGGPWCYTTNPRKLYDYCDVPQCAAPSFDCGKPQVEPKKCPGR
Protocol: as §3
Series [7] concerns the target Thrombin (Homo sapiens, UniProt P00734). The series is described as above. Format: biochemical. Particulars: 5 min pre‐incubation.
Protocol: as §3
The target in series [8] is Trypsin. The series is described as above. Type of series: biochemical, human. Particulars: 5 min pre‐incubation.
Protocol: as §3
Series [9] has as its target Beta‐secretase 1 (Homo sapiens, UniProt P56817). The series is described as above. Format: biochemical. Particulars: 5 min pre‐incubation.
Protocol: as §3
Series [10] addresses Cathepsin D (Homo sapiens, UniProt P07339). The series is described as above. Format: biochemical. Particulars: 5 min pre‐incubation.
Protocol: as §3
Series [11] concerns the target Cathepsin G (Homo sapiens, UniProt P08311). The description is as above. Particulars: 5 min pre‐incubation. Type of series: biochemical.
Protocol: as §3
For series [12], the target named is Renin (Homo sapiens, UniProt P00797). Described as above. Type of series: biochemical. Particulars: 5 min pre‐incubation.
Renin, sequence (P00797 67-406): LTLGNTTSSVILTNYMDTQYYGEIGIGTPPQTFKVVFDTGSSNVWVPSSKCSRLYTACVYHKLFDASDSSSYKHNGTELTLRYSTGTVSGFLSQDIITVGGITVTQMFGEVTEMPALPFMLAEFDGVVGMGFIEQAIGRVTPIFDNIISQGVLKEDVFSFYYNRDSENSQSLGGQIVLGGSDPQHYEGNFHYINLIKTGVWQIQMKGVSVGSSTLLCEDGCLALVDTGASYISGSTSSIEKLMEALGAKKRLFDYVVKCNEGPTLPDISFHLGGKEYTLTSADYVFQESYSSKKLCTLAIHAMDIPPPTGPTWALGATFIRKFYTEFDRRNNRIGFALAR
Protocol: as §3
Series [13] addresses Tissue plasminogen activator (Homo sapiens, UniProt P00750). Described as above. Format: biochemical. Particulars: 5 min pre‐incubation.
Protocol: as §3
Series [14] deals with Tryptase. The series is described as above. Format: biochemical, human. Particulars: 5 min pre‐incubation.
Protocol: as §3
Series [15] in a line: plasma protein binding, Rapid Equilibrium Dialysis. Format: in vitro ADME. As to conditions: human, pH 7.4, control plasma, dialysed 5 h at 37°C, read-out: plasma protein binding (PPB) (converted). The method, then: PKa enzyme activity was measured in human pooled plasma (control plasma, Affinity Biologicals) using H‐D‐Pro‐Phe‐Arg‐AFC. The KKS in plasma was stimulated by the addition of dextran sulphate 500 kDa (DXS; Sigma‐Aldrich). PKa activity in the plasma was estimated based on the maximum rate of fluorescence increase. […] Percent plasma protein binding (PPB %) was determined using Rapid Equilibrium Dialysis (Pierce RED technology, ThermoFisher Scientific). Compounds were spiked into control plasma (final concentration 5 μM) and dialysed against phosphate buffer (pH 7.4) for 5 h at 37°C. Samples were analysed using liquid chromatography‐tandem mass spectrometry to quantify the fraction of unbound compound.
For orientation: Equilibrium dialysis compares concentrations on both sides of a semipermeable membrane.

Series [16] relates to PKa‐mediated HK cleavage. Nature of the series: capillary‐based immunoassay of DXS‐stimulated HK cleavage in control plasma. Particulars: for DXS‐stimulated generation of cHK: 6.25 µg/ml DXS. Format: biochemical, human. The method, then: (§1) Undiluted plasma samples obtained at pre‐dose and post‐dose from healthy controls and HAE patients from clinical trials with KVD900, described below, were stimulated with DXS, as described above. Reactions were stopped by rapidly heating samples to 95°C for 10 min in Laemmli buffer containing β‐mercaptoethanol. Components of the KKS in plasma samples (diluted 1:20) were separated by capillary electrophoresis using 12–230 kDa separation modules in the Protein Simple WES^TM system (ProteinSimple). Proteins were detected by immunoassay and quantified from peak areas corresponding to chemiluminescence intensities using Compass for Simple Western software (Version 4.0.0, ProteinSimple) and visualized as virtual blots generated from capillary electropherograms as previously described.[18] Standard curves were generated to estimate protein concentrations in plasma using known quantities of purified HK, plasma prekallikrein (PK), FXII and FXIIa (Enzyme Research Laboratories), spiked into HK (Affinity Biologicals), PK (Affinity Biologicals) and FXII (Technoclone) deficient plasma respectively. Immunodetection was performed using primary antibodies for PK (clone 13G11) (Invitrogen), HK and cHK: KNG17A12 Antibody (Molecular Innovations), FXII and FXIIa: FXII20B2 antibody (Molecular Innovations) and horseradish peroxidase‐conjugated secondary antibody. The anti‐HK light chain antibody used detected HK and two cHK bands. The total cHK was quantified by taking the sum of the peak areas for both cHK bands.

The target of series [17] is T1, PKa (Homo sapiens, UniProt P03952).
T1 construct: host or cells: human pooled plasma, stimulated with dextran sulphate
T1 sequence (P03952 391-638 limits assumed): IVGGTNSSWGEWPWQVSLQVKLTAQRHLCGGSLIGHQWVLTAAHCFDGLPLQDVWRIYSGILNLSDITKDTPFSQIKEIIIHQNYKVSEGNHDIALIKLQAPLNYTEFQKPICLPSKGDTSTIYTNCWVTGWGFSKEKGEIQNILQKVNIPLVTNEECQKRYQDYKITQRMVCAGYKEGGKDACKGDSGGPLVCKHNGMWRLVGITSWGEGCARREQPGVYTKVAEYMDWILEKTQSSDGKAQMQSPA
T1 sequence (P03952 20-390 partner limits assumed): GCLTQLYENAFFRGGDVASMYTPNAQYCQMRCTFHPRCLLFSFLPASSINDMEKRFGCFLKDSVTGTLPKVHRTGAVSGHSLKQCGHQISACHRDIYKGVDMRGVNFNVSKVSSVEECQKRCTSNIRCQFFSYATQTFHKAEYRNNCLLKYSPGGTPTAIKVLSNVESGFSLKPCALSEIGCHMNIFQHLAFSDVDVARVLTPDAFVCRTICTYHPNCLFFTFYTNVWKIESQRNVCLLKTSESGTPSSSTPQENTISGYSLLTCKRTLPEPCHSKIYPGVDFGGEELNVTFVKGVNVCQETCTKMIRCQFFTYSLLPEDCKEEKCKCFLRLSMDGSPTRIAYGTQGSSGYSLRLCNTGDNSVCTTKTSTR
Nature of the series: phase 1: DXS‐stimulated PKa activity in plasma after oral KVD900. Type of series: in vivo. As to conditions: healthy male volunteers, 600 mg oral powder in capsule, read-out: inhibition of DXS‐stimulated PKa activity compared with pre‐dose. The method, then: PKa enzyme activity was measured in human pooled plasma (control plasma, Affinity Biologicals) using H‐D‐Pro‐Phe‐Arg‐AFC. The KKS in plasma was stimulated by the addition of dextran sulphate 500 kDa (DXS; Sigma‐Aldrich). PKa activity in the plasma was estimated based on the maximum rate of fluorescence increase. […] Plasma samples were stimulated with 6.25 or 10 µg/ml DXS and PKa enzyme activity was measured as described above. Percent plasma protein binding (PPB %) was determined using Rapid Equilibrium Dialysis (Pierce RED technology, ThermoFisher Scientific). Compounds were spiked into control plasma (final concentration 5 μM) and dialysed against phosphate buffer (pH 7.4) for 5 h at 37°C. Samples were analysed using liquid chromatography‐tandem mass spectrometry to quantify the fraction of unbound compound.
(§2) Participants with HAE were within their intercritical period. Blood samples were collected into 3.2% sodium citrate, centrifuged at 1500 g for 10 min at 4°C, and plasma was stored at −80°C until analysis. Additional information on these trials can be found elsewhere (NCT04349800 and NCT04208412, available at https://clinicaltrials.gov).

The test system of series [18] is HK cleavage. Nature of the series: phase 1: capillary immunoassay of HK and cHK in DXS‐stimulated plasma after oral KVD900. As to conditions: 600 mg oral. Format: in vivo, human. The method, then:
as §1, §2

The test system of series [19] is plasma prekallikrein (PK). Nature of the series: phase 1: capillary immunoassay of PK in DXS‐stimulated plasma after oral KVD900. Type of series: in vivo, human. Particulars: healthy volunteers, 600 mg oral. On the procedure:
as §1, §2

In series [20] the test system is FXII. As to the kind of experiment: phase 1: capillary immunoassay of FXII and FXIIa in DXS‐stimulated plasma after oral KVD900. Type of series: in vivo, human. As to conditions: healthy volunteers, 600 mg oral. On the procedure: as §1, §2
The nature of series [21]: phase 2: plasma concentrations of KVD900 in HAE subjects. Format: in vivo. As to conditions: both sexes, human, HAE Type 1 and Type 2 subjects, 600 mg oral tablets, arithmetic mean, n = 42. On the procedure:
as §2

In series [22] the target is T1, PKa. As to the kind of experiment: phase 2: DXS‐stimulated PKa activity in HAE plasma after oral KVD900. Particulars: HAE subjects (n = 12), 600 mg oral tablets; 45 min post‐dose. Format: in vivo.
Series [23] concerns HK cleavage. As to the kind of experiment: phase 2: DXS‐stimulated HK cleavage assay in HAE plasma after oral KVD900. Format: in vivo, human. On the procedure: as §1, §2
The subject of series [24] is PKa. Set-up: method as in PMID 7692967. As to conditions: cited from earlier work.
Setting [25] is: six HAE patients, 600 mg oral tablets, 15 min through 4 h post‐dose.

Tissue plasminogen activator, sequence (P00750 36-562): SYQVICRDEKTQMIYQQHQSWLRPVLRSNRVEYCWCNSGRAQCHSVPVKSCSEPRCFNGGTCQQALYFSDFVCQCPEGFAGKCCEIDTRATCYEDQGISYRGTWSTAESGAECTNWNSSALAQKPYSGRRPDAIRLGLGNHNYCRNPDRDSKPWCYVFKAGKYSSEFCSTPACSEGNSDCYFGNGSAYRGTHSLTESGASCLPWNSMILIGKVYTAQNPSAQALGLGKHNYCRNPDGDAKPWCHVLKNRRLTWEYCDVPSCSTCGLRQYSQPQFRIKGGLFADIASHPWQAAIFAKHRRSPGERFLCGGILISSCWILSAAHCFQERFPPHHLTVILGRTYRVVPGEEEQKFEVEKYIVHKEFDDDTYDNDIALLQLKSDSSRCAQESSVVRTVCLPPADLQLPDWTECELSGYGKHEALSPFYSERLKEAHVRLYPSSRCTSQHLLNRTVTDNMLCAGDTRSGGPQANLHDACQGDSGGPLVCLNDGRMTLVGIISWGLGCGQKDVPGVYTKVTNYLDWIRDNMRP
FXa, sequence (P00742 235-488 limits assumed): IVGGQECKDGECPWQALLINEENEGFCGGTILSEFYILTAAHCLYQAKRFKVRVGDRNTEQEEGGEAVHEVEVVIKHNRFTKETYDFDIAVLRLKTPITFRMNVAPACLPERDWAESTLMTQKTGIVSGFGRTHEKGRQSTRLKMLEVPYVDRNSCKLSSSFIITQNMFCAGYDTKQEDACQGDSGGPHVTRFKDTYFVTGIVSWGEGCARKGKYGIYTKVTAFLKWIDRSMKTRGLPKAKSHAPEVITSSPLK
FXa, sequence (P00742 41-179 partner limits assumed): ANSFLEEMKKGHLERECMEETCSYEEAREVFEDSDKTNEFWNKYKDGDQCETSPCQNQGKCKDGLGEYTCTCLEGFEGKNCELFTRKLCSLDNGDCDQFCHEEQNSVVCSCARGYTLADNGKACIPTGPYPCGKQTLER
Cathepsin D, sequence (P07339 65-412): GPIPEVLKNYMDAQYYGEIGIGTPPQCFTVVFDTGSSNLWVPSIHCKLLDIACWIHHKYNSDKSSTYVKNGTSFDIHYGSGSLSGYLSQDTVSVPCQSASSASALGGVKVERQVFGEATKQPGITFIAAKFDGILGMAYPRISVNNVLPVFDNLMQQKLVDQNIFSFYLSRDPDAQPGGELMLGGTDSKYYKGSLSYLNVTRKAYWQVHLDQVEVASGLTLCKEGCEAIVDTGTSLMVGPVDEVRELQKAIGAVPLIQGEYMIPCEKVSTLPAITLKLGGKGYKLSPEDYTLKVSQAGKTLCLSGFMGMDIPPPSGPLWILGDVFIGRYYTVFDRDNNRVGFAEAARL
Tissue kallikrein, sequence (P06870 25-262): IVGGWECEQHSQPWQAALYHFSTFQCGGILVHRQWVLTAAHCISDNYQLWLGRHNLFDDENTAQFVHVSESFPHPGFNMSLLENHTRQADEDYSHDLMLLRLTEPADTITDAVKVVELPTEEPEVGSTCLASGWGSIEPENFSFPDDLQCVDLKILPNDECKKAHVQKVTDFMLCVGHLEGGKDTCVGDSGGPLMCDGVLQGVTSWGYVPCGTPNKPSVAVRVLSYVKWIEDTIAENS
FXIa, sequence (P03951 388-625 limits assumed): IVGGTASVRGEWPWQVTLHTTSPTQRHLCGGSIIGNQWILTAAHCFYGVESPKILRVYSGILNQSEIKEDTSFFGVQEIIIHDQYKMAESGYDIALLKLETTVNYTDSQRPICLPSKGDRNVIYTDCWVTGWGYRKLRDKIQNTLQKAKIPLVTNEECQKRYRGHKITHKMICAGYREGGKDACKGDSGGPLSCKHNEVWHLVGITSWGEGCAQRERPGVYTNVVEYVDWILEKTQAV
FXIa, sequence (P03951 19-387 partner limits assumed): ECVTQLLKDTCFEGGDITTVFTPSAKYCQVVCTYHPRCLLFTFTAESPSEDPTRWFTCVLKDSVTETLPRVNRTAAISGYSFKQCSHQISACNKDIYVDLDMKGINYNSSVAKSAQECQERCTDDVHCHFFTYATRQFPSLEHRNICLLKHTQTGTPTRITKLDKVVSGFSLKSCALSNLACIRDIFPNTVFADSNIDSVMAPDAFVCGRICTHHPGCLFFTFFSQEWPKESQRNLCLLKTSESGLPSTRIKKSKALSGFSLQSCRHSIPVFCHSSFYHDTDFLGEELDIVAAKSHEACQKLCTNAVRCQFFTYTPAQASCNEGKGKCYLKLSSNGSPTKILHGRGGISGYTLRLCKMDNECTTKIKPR
Cathepsin G, sequence (P08311 21-255): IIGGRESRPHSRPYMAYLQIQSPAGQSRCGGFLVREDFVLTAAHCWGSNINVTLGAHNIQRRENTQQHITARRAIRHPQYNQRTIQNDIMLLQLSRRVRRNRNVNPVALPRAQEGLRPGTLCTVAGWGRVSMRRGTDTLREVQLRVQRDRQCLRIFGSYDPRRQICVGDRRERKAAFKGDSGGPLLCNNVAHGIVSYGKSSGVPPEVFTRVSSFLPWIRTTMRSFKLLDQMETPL
FXIIa, sequence (P00748 373-615 limits assumed): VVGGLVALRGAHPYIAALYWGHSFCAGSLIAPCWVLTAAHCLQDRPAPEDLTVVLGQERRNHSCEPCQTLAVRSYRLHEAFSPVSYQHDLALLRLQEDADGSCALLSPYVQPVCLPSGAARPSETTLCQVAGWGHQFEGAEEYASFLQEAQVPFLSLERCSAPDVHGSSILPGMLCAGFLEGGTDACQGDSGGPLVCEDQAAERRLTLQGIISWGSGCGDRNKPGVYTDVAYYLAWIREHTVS

A word on the IC50: it is the concentration at which inhibition is half-maximal. Usually inhibition stands for the relative decrease from the control value, in per cent. By Cmax is commonly meant the peak of the concentration-time curve. Broadly, the Tmax is the time from dosing to the highest level. `COCc1nn(Cc2ccc(Cn3ccccc3=O)cc2)cc1C(=O)NCc1nccc(OC)c1F` [KVD900]: the IC50 in [1] is above 10 µM; in series [2], above 40 µM; in series [3] it was above 40 µM; in series [4] it was above 10 µM; in [5], above 10 µM; in [6], above 40 µM. The IC50 was above 40 µM in series [7]; above 40 µM in series [8]; above 10 µM in series [9]; above 10 µM in series [10]; above 10 µM in series [11]; above 10 µM in series [12]. The IC50 was above 10 µM in series [13]; above 10 µM in [14]; around 0.2 µM in series [16] (control plasma, 15 min pre‐treatment, 6.25 µg/ml DXS on ice 17 min, read-out: IC50, protection of HK from DXS‐stimulated depletion). For the same molecule, the fraction unbound at 5 h, 5 μM in [15] is 0.23. In addition, the “DXS‐stimulated generation of cHK” value in series [16] (300 nM) and in series [16] (1000 nM) was “fully inhibited” each time. Further, the inhibition at 600 mg in series [17] (1 h post‐dose) is above 97%; in series [17] (4 h post‐dose), above 97%; in series [17] (6 h post‐dose) it was above 90%; in [17] (8 h post‐dose) it was above 83%; in series [22] it was at least 95%. Moreover, in [18], the “time for which DXS‐stimulated generation of cHK was not detectable” value is “at least 6 h”. Also, the “cHK levels in DXS‐stimulated plasma” value is on record as “not significantly increased compared with pre‐dose without DXS” in series [18] (healthy volunteers, 1, 6 and 8 h post‐dose); “comparable with unstimulated plasma” in series [23] (setting [25]). Further, the “HK remaining after DXS‐stimulation” value in series [18] (healthy volunteers, 1 to 8 hours post‐dose) is on record as above 65%. Also, the “PK after DXS‐stimulation, % of unstimulated plasma” value in series [19] (1 h post‐dose) came to 82.7 ± 4.4%; in series [19] (6 h post‐dose) it was 87.0± 4.1%. Besides, the “DXS‐stimulated decrease in PK” value in series [19] (later time points (≥8 h)) is recorded as “comparable to the PK decrease observed in pre‐dose samples”. The “FXII protection in DXS‐stimulated plasma compared with pre‐dose” value in series [20] (1 and 6 h post‐dose) is “non‐significant”. The “reduction of DXS‐stimulated generation of FXIIa compared with pre‐dose” value in [20] (1 h post‐dose), in [20] (6 h post‐dose) and in [20] (8 h post‐dose) was above 90% each time. The same molecule had a Cmax in series [21] of 6.57 µg/mL. For the same molecule, in series [21], the Tmax came to 1.2 h. The “time post‐dose from which inhibition of HK cleavage (and PKa activity) is observed” value in series [23] (600 mg oral) is reported as 15 min. Also, in series [23] (setting [25]), the “protection from DXS‐stimulated depletion of HK” value is recorded as “strongly protected”.

B1: DX‐2930: PKa inhibitor DX‐2930 (lanadelumab), approved treatment for HAE (antibody, chains of the INN, looked up, V domains shown)
VH: EVQLLESGGGLVQPGGSLRLSCAASGFTFSHYIMMWVRQAPGKGLEWVSGIYSSGGITVYADSVKGRFTISRDNSKNTLYLQMNSLRAEDTAVYYCAYRRIGVPRRDEFDIWGQGTMVTVSS
VL: DIQMTQSPSTLSASVGDRVTITCRASQSISSWLAWYQQKPGKAPKLLIYKASTLESGVPSRFSGSGSGTEFTLTISSLQPDDFATYYCQQYNTYWTFGQGTKVEIK
For B1, the “reported Kon for PKa” value in series [24] was 3.4e+06 M⁻¹ s⁻¹.

B2: C1‐INH: serine protease inhibitor (serpin) that covalently binds and inactivates PKa and FXIIa (protein, UniProt P05155 23-500, looked up)
Plasma protease C1 inhibitor: NPNATSSSSQDPESLQDRGEGKVATTVISKMLFVEPILEVSSLPTTNSTTNSATKITANTTDEPTTQPTTEPTTQPTIQPTQPTTQLPTDSPTQPTTGSFCPGPVTLCSDLESHSTEAVLGDALVDFSLKLYHAFSAMKKVETNMAFSPFSIASLLTQVLLGAGENTKTNLESILSYPKDFTCVHQALKGFTTKGVTSVSQIFHSPDLAIRDTFVNASRTLYSSSPRVLSNNSDANLELINTWVAKNTNNKISRLLDSLPSDTRLVLLNAIYLSAKWKTTFDPKKTRMEPFHFKNSVIKVPMMNSKKYPVAHFIDQTLKAKVGQLQLSHNLSLVILVPQNLKHRLEDMEQALSPSVFKAIMEKLEMSKFQPTLLTLPRIKVTTSQDMLSIMEKLEFFDFSYDLNLCGLTEDPDLQVSAMQHQTVLELTETGVEAAAASAISVARTLLVFEVQQPFLFVLWDQQHKFPVFMGRVYDPRA
B2: in [24], the “reported Kon for PKa” value is 17000 M⁻¹ s⁻¹.
